Experimental data published in patent US20250002450A1, “CATIONIC STEROID COMPOUNDS, METHOD OF OBTAINING THEREOF, FORMULATIONS COMPRISING THEREOF AND THEIR USES” (UNIVERSIDADE DO PORTO, priority 2021, published 2025).
≈ marks a conversion by molar mass, not a printed value. Read-outs that look alike come from different tables or passages of the source.

Assays:
Assay in all cases: Antibacterial MIC/MBC (broth microdilution)
[1] = test system: Streptococcuss pyogenes ATCC 19615; assay type: cell-based, Streptococcus pyogenes; settings: for MBC / MIC: Streptococcuss pyogenes ATCC 19615
Excerpt: (§1) Twelve reference bacterial strains and nine MDR clinically relevant bacterial strains were used in this study. Gram-negative bacteria comprised reference strains E. coli ATCC 25922, K. pneumoniae ATCC 13883, Salmonella enterica serovar Typhimurium CECT 443, P. aeruginosa ATCC 27853, A. baumannii ATCC 19606, C. jejuni ATCC 33560 (ATCC—American Type Culture Collection; CECT—Colección Espanola de Cultivos Tipo); clinical isolates E. coli SA/2, an extended-spectrum β-lactamase (ESBL)-producing strain and P. aeruginosa 33b, a pan-drug-resistant isolate; and animal isolates C. jejuni P5/4, a ciprofloxacin-resistant strain, C. jejuni 4432, C. jejuni 4433, C. jejuni 4448, and E. coli 2252, a COL-resistant strain [42]. Gram-positive strains included S. aureus ATCC 29213, E. faecalis ATCC 29212, S. pyogenes ATCC 19615, and environmental isolates methicillin-resistant S. aureus (MRSA) 66/1 [43], and VAN-resistant enterococci (VRE) E. faecalis B3/101 [44]. Gram-negative fish pathogens Yersinia ruckeri ATCC 29473, Listonella anguillarum ATCC 1924, and Tenacibaculum maritimum ATCC 43397 were also included.
(§2) Strains were kept in Trypto-Casein Soy agar (TSA—Biokar Diagnostics, Allone, Beauvais, France) slants and, before each assay, were sub-cultured in Mueller-Hinton agar (MHA—Biokar Diagnostics, Allone, Beauvais, France). Y. ruckeri ATCC 29473 and L. anguillarum ATCC 1924 were kept in Nutrient Agar (Condalab, Madrid, Spain) and T. maritimum ATCC 43397 was kept in TMM agar (Condalab, Madrid, Spain), and were sub-cultured in the respective culture media before each assay. For S. pyogenes ATCC 19615, CAMHB was supplemented with 3.75% lysed horse blood (LBH—Oxoid, Basingstoke, England), whereas for C. jejuni it was supplemented with 2.5% LHB. Colony-forming unit counts of the inoculum were conducted to determine the initial inoculum size (which should be approximately 5×10^5 CFU/mL). Sterility and growth controls were included in each assay. The 96-well U-shaped untreated polystyrene microtiter plates were incubated for 20 h at 37 degrees C. (42 degrees C. for C. jejuni, in a microaerophilic atmosphere) and the minimal inhibitory concentration (MIC) was determined as the lowest concentration of compound that prevented visible growth. The minimal bactericidal concentration (MBC) was determined by spreading 100 μL of the content of the wells with no visible growth on MH plates. The MBC was determined as the lowest concentration of compound that killed 99.9% of the initial inoculum after overnight incubation at 37 degrees C. Two independent assays were performed for reference and MDR strains.
(§3) An initial screening of the antibacterial activity of the compounds was performed by the Kirby-Bauer disk diffusion method, as recommended by the Clinical and Laboratory Standards Institute (CLSI). Briefly, sterile 6 mm blank paper disks (Oxoid, Basingstoke, England) impregnated with 15 μg of each compound were placed on inoculated MH agar plates. A blank disk with dimethylsulfoxide (DMSO) was used as a negative control. MH inoculated plates were incubated for 18-20 h at 37 degrees C. At the end of incubation, the inhibition halos where measured. The MIC was used to determine the antibacterial activity of each compound, in accordance with the recommendations of the CLSI. Two-fold serial dilutions of the compounds were prepared in Mueller-Hinton Broth 2 (MHB2—Sigma-Aldrich, St. Louis, MO, USA) within the concentration range of 0.062-64 μg/mL. CTX ranging between 0.031-16 μg/mL was used as a control. Sterility and growth controls were included in each assay. Purity checks and colony counts of the inoculum suspensions were also performed in order to ensure that the final inoculum density closely approximates the intended number (5×10^5 CFU/mL). The MIC was determined as the lowest concentration of compound that inhibited growth of the bacteria. The MBC was assessed by spreading 10 μL of culture collected from wells showing no visible growth on MH agar plates. […]

[2] = test system: S. aureus 66/1 (MRSA); assay type: cell-based, Staphylococcus aureus
Excerpt: as §1, §2, §3

[3] = test system: Enterococcuss faecalis ATCC 29212; assay type: cell-based, Enterococcus faecalis; settings: for antibacterial activity (in words): E. faecalis ATCC 29212; for MBC / MIC: Enterococcuss faecalis ATCC 29212
Excerpt: as §1, §2, §3

[4] = test system: E. faecalis B3/101 (VRE); assay type: cell-based, Enterococcus faecalis; settings: for antibacterial activity (in words): E. faecalis B3/101; for MBC / MIC: E. faecalis B3/101 (VRE)
Excerpt: as §1, §2, §3

[5] = test system: Acinetobacter baumannii ATCC 19606; assay type: cell-based; settings: for antibacterial activity (in words): A. baumannii ATCC 19606; for MBC / MIC: Acinetobacter baumannii ATCC 19606
Excerpt: as §1, §2, §3

[6] = test system: Staphylococcus aureus ATCC 29213; assay type: cell-based
Excerpt: as §1, §2, §3

[7] = test system: Escherichia coli ATCC 25922; assay type: cell-based; settings: for MBC / MIC: Escherichia coli ATCC 25922
Excerpt: as §1, §2, §3

[8] = test system: Klebsiella pneumoniae ATCC 13883; assay type: cell-based; settings: for MBC / MIC: Klebsiella pneumoniae ATCC 13883
Excerpt: as §1, §2, §3

[9] = test system: Salmonella enterica serovar Typhimurium CECT 443; assay type: cell-based
Excerpt: as §1, §2, §3

[10] = test system: Listonella anguilarum ATCC 1924; assay type: cell-based; settings: for antibacterial activity (in words): Listonella anguilarum; for MBC / MIC: Listonella anguilarum ATCC 1924
Excerpt: as §1, §2, §3

[11] = test system: Pseudomonas aeruginosa ATCC 27853; assay type: cell-based; settings: for MBC / MIC: Pseudomonas aeruginosa ATCC 27853
Excerpt: as §1, §2, §3

[12] = test system: Yersinia ruckeri ATCC 29473; assay type: cell-based
Excerpt: as §1, §2, §3

[13] = test system: C. jejuni 4433; assay type: cell-based, Campylobacter jejuni
Excerpt: as §1, §2, §3

[14] = test system: C. jejuni 4432; assay type: cell-based, Campylobacter jejuni
Excerpt: as §1, §2, §3

[15] = test system: C. jejuni 4448; assay type: cell-based, Campylobacter jejuni
Excerpt: as §1, §2, §3

[16] = test system: C. jejuni P5/4; assay type: cell-based, Campylobacter jejuni
Excerpt: as §1, §2, §3

[17] = Campylobacter jejuni, read-out: MBC
[18] = Campylobacter jejuni, read-out: MIC

C[C@H](CCC(=O)NCCN)[C@H]1CC[C@H]2[C@@H]3CC[C@@H]4C[C@H](O)CC[C@]4(C)[C@H]3C[C@H](O)[C@]12C [Compound 1, (R)—N-(2-aminoethyl)-4-((3R,5R,8R,9S,10S,12S,13R,14S,17R)-3,12-dihydroxy-10,13-dimethylhexadecahydro-1H-cyclopenta[a]phenanthren-17-yl) pentanamida]
antibacterial activity (in words) ([1]; S. pyogenes ATCC 19615): active
MBC [1]: 64 µg/mL (≈ 147 µM)
MIC [1]: 64 µg/mL (≈ 147 µM)
MBC [2]: 32 µg/mL (≈ 73.6 µM)
MIC [2]: 32 µg/mL (≈ 73.6 µM)
antibacterial activity (in words) [3]: exhibited antimicrobial activity
MBC [3]: 32 µg/mL (≈ 73.6 µM)
MIC [3]: 16 µg/mL (≈ 36.8 µM)
antibacterial activity (in words) [4]: displayed the same effect
MBC [4]: 32 µg/mL (≈ 73.6 µM)
MIC [4]: 32 µg/mL (≈ 73.6 µM)
antibacterial activity (in words) [5]: displayed an inhibitory effect
MBC [5]: 64 µg/mL (≈ 147 µM)
MIC [5]: 64 µg/mL (≈ 147 µM)
MBC [6]: 16 µg/mL (≈ 36.8 µM)
MIC [6]: 16 µg/mL (≈ 36.8 µM)
antibacterial activity (in words) ([7]; E. coli ATCC 25922): active
MBC [7]: 64 µg/mL (≈ 147 µM)
MIC [7]: 32 µg/mL (≈ 73.6 µM)
antibacterial activity (in words) ([8]; K. pneumoniae ATCC 13883): active
MBC [8]: 64 µg/mL (≈ 147 µM)
MIC [8]: 64 µg/mL (≈ 147 µM)
MBC [9]: 16 µg/mL (≈ 36.8 µM)
MIC [9]: 16 µg/mL (≈ 36.8 µM)
antibacterial activity (in words) [9]: exhibited antimicrobial activity
antibacterial activity (in words) [10]: active
MBC [10]: 32 µg/mL (≈ 73.6 µM)
MIC [10]: 16 µg/mL (≈ 36.8 µM)
antibacterial activity (in words) ([11]; P. aeruginosa ATCC 27853): active
MBC [11]: 64 µg/mL (≈ 147 µM)
MIC [11]: 64 µg/mL (≈ 147 µM)
MBC [12]: 32 µg/mL (≈ 73.6 µM)
MIC [12]: 16 µg/mL (≈ 36.8 µM)
antibacterial activity (in words) [12]: displayed antibacterial activity
MBC [13]: 64 µg/mL (≈ 147 µM)
MIC [13]: 64 µg/mL (≈ 147 µM)
antibacterial activity (in words) [13]: showed antimicrobial activity
MBC [14]: 64 µg/mL (≈ 147 µM)
MIC [14]: 64 µg/mL (≈ 147 µM)
antibacterial activity (in words) [14]: showed antimicrobial activity
MBC [15]: 64 µg/mL (≈ 147 µM)
MIC [15]: 64 µg/mL (≈ 147 µM)
antibacterial activity (in words) [15]: showed antimicrobial activity
MBC [16]: 32 µg/mL (≈ 73.6 µM)
MIC [16]: 32 µg/mL (≈ 73.6 µM)
antibacterial activity (in words) [16]: active

C[C@H](CCC(=O)N1CCNCC1)[C@H]1CC[C@H]2[C@@H]3CC[C@@H]4C[C@H](O)CC[C@]4(C)[C@H]3C[C@H](O)[C@]12C [Compound 9, (R)-4-((3R,5R,8R,9S,10S,12S,13R,14S,17R)-3,12-dihydroxy-10,13-dimethylhexadecahydro-1H-cyclopenta[a]phenanthren-17-yl)-1-(piperazin-1-yl) pentan-1-one]
MBC ([1]; Streptococcus pyogenes, ATCC19615, read-out: MBC): > 64 µg/mL
MIC ([1]; Streptococcus pyogenes, ATCC19615, read-out: MIC): > 64 µg/mL
MBC ([2]; Staphylococcus aureus, read-out: MBC): 64 µg/mL (≈ 139 µM)
MIC ([2]; Staphylococcus aureus, read-out: MIC): 64 µg/mL (≈ 139 µM)
antibacterial activity (in words) [3]: exhibited antimicrobial activity
MBC ([3]; Enterococcus faecalis, ATCC29212, read-out: MBC): 64 µg/mL (≈ 139 µM)
MIC ([3]; Enterococcus faecalis, ATCC29212, read-out: MIC): 64 µg/mL (≈ 139 µM)
antibacterial activity (in words) [4]: displayed the same effect
MBC ([4]; Enterococcus faecalis, read-out: MBC): > 64 µg/mL
MIC ([4]; Enterococcus faecalis, read-out: MIC): 32 µg/mL (≈ 69.5 µM)
antibacterial activity (in words) [5]: displayed an inhibitory effect
MBC ([5]; ATCC19606, read-out: MBC): 64 µg/mL (≈ 139 µM)
MIC ([5]; ATCC19606, read-out: MIC): 64 µg/mL (≈ 139 µM)
MBC ([6]; ATCC29213, read-out: MBC): 64 µg/mL (≈ 139 µM)
MIC ([6]; ATCC29213, read-out: MIC): 64 µg/mL (≈ 139 µM)
MBC ([7]; ATCC25922, read-out: MBC): > 64 µg/mL
MIC ([7]; ATCC25922, read-out: MIC): > 64 µg/mL
MBC ([8]; ATCC13883, read-out: MBC): > 64 µg/mL
MIC ([8]; ATCC13883, read-out: MIC): > 64 µg/mL
MBC ([9]; read-out: MBC): 64 µg/mL (≈ 139 µM)
MIC ([9]; read-out: MIC): 64 µg/mL (≈ 139 µM)
antibacterial activity (in words) [10]: active
MBC ([10]; read-out: MBC): 64 µg/mL (≈ 139 µM)
MIC ([10]; read-out: MIC): 64 µg/mL (≈ 139 µM)
MBC ([11]; ATCC27853, read-out: MBC): > 64 µg/mL
MIC ([11]; ATCC27853, read-out: MIC): > 64 µg/mL
MBC ([12]; ATCC29473, read-out: MBC): > 64 µg/mL
MIC ([12]; ATCC29473, read-out: MIC): > 64 µg/mL
MBC [13, 17]: > 64 µg/mL
MIC [13, 18]: > 64 µg/mL
MBC [14, 17]: > 64 µg/mL
MIC [14, 18]: > 64 µg/mL
MBC [15, 17]: > 64 µg/mL
MIC [15, 18]: > 64 µg/mL
MBC [16, 17]: > 64 µg/mL
MIC [16, 18]: > 64 µg/mL
